Among the data in patent US20260297085A1, “1 H-PYRROLO[2,3-B]PYRIDIN-4-YL]-2-OXOPYRROLIDINE-3-CARBONITRILE DERIVATIVES AS TYROSINE KINASE 2 (TYK2) INHIBITORS FOR THE TREATMENT OF INFLAMMATORY DISEASES” (BIOGEN MA INC., priority 2023, published 2026) are IC50 values, retold here.

Experiment [1] addresses Tyk2 kinase activity on STAT4 in NK92 cells (Homo sapiens, UniProt P29597). Nature of the experiment: pSTAT4 cell assay (MSD; NK92 cells, 30 ng/mL IL2 stimulation). Conditions: 30 ng/mL IL2, 15 minutes. Type of experiment: cell-based. A digest of the protocol: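 IC50 values derive from 4-parameter logistic fits of normalized percent activity against log compound concentration. Phospho-STAT was measured by MSD with anti-STAT4 antibodies after 15 min of 30 ng/mL IL2 in serum-starved NK92 cells pretreated 1 hr with compound.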

Experiment [2] deals with T1, human TYK2 kinase domain (JH1) (Homo sapiens, UniProt P29597).
T1 construct: recombinantly generated catalytic kinase (also known as JH1) domain of human JAK1, JAK2, JAK3 and TYK2
T1 sequence (P29597 897-1176 limits assumed): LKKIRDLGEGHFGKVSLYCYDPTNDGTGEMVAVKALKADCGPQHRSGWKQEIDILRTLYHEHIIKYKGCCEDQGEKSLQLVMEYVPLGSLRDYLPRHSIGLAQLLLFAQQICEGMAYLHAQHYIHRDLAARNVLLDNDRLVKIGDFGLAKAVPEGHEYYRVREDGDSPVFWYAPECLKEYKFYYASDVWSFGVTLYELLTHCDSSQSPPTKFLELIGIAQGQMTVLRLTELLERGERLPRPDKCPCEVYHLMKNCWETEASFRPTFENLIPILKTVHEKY
Description: JH1 biochemical assay for TYK2 (ADP-Glo kinase assay, recombinant JH1 catalytic domain, JAK3-974 peptide, 10 μM ATP). Conditions: JH1 kinase domain, ADP-Glo. The procedure, abridged:
(§1)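 Reactions contain 50 μM peptide and run 100 minutes, with enzyme at 4, 0.2, 0.3 and 2 nM for JAK1, JAK2, JAK3 and TYK2. Generated ADP is read by luminescence; IC50 derives from normalized dose-response curves.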

In experiment [3] the target is T2, human JAK1 kinase domain (JH1) (Homo sapiens, UniProt P23458).
T2 construct: recombinantly generated catalytic kinase (also known as JH1) domain of human JAK1, JAK2, JAK3 and TYK2
Nature of the experiment: JH1 biochemical assay for JAK1 (ADP-Glo kinase assay, recombinant JH1 catalytic domain, JAK3-342 peptide, 35 μM ATP). The settings on record: JH1 kinase domain, ADP-Glo. The procedure, abridged:
as §1

Experiment [4] addresses T3, human JAK3 kinase domain (JH1) (Homo sapiens, UniProt P52333).
T3 construct: recombinantly generated catalytic kinase (also known as JH1) domain of human JAK1, JAK2, JAK3 and TYK2
Nature of the experiment: JH1 biochemical assay for JAK3 (ADP-Glo kinase assay, recombinant JH1 catalytic domain, JAK3-974 peptide, 4 μM ATP). Conditions: JH1 kinase domain, ADP-Glo. The procedure, abridged: as §1
In general terms: ADP-Glo turns the ADP formed in a reaction into a luminescent signal.

Experiment [5] deals with JAK1 kinase activity on STAT3 in TF1 cells (Homo sapiens, UniProt P23458). Description: pSTAT3 cell assay (MSD; TF1 cells, 30 ng/mL IL-6 stimulation). Type of experiment: cell-based. The settings on record: 30 ng/mL IL-6, 15 minutes. On the procedure:
The inhibitory potency of compounds of the disclosure against the JAK1 kinase activity on STAT3 was evaluated using an MSD-platform plate-based assay format. TF1 cells natively expressing STAT3 and JAK1 were serum-starved to reduce background phosphorylation levels, then cells were treated with compounds of the disclosure for 1 hour with a 10-point four-fold dilution series starting at 10 μM. Cells were then stimulated with 30 ng/mL interleukin 6 (IL-6) for 15 minutes. Cells were lysed and pSTAT3 levels were quantitated using an MSD plate-based assay with anti-STAT3 antibodies. The data were normalized and the percent activity versus log concentration of compound was fitted with a 4-parameter logistic model to generate IC50 curves.

The target of experiment [6] is T4, human JAK2 kinase domain (JH1) (Homo sapiens, UniProt O60674).
T4 construct: recombinantly generated catalytic kinase (also known as JH1) domain of human JAK1, JAK2, JAK3 and TYK2
Nature of the experiment: JH1 biochemical assay for JAK2 (ADP-Glo kinase assay, recombinant JH1 catalytic domain, JAK3-974 peptide, 15 μM ATP). The settings on record: JH1 kinase domain, ADP-Glo. A digest of the protocol: as §1

In experiment [7] the target is JAK2 kinase activity on STAT5 in TF1 cells (Homo sapiens, UniProt O60674). Description: pSTAT5 cell assay (MSD; TF1 cells, 30 ng/mL IL-3 stimulation). Type of experiment: cell-based. The settings on record: 30 ng/mL IL-3, 15 minutes. On the procedure:
The inhibitory potency of compounds of the disclosure against the JAK2 kinase activity on STAT5 was evaluated using an MSD-platform plate-based assay format. TF1 cells natively expressing STAT5 and JAK2 were serum-starved to reduce background phosphorylation levels, then cells were treated with compounds of disclosure for 1 hour with a 10-point four-fold dilution series starting at 10 μM. Cells were then stimulated with 30 ng/mL IL-3 for 15 minutes. Cells were then lysed and pSTAT5 levels were quantitated using an MSD plate-based assay with anti-STAT5 antibodies. The data were normalized and the percent activity versus log concentration of compound was fitted with a 4-parameter logistic model to generate a curve and an IC50 value.

JAK2 kinase activity on STAT5 in TF1 cells, sequence (O60674 whole entry): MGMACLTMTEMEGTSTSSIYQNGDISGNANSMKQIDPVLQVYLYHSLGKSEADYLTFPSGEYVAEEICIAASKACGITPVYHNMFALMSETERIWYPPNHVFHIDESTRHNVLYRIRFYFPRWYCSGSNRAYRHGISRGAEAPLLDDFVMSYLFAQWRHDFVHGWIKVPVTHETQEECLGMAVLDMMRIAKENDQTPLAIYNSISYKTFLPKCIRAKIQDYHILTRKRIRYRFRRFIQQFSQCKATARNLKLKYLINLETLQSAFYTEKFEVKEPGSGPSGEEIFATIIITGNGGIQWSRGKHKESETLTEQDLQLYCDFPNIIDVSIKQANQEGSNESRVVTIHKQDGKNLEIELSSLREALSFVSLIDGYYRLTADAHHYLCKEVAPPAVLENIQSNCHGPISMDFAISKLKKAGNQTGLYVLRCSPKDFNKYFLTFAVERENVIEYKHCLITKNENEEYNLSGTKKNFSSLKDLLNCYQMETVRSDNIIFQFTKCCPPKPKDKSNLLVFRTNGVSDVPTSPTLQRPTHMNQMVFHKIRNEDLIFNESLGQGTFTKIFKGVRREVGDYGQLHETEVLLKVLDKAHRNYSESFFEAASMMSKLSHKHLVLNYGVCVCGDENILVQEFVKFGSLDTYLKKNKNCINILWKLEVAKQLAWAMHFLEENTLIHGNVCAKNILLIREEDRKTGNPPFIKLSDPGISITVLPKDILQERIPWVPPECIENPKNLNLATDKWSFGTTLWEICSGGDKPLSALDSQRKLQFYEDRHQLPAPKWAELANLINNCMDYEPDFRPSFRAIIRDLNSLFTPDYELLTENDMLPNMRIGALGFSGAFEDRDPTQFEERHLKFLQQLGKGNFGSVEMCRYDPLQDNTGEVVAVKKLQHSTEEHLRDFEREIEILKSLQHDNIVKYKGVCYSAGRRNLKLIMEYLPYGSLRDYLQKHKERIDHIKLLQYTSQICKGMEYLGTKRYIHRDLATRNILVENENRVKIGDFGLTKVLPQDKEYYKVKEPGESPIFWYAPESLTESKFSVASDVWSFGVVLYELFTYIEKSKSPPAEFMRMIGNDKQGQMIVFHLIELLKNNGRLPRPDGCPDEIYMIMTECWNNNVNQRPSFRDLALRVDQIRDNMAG
Tyk2 kinase activity on STAT4 in NK92 cells, sequence (P29597 whole entry): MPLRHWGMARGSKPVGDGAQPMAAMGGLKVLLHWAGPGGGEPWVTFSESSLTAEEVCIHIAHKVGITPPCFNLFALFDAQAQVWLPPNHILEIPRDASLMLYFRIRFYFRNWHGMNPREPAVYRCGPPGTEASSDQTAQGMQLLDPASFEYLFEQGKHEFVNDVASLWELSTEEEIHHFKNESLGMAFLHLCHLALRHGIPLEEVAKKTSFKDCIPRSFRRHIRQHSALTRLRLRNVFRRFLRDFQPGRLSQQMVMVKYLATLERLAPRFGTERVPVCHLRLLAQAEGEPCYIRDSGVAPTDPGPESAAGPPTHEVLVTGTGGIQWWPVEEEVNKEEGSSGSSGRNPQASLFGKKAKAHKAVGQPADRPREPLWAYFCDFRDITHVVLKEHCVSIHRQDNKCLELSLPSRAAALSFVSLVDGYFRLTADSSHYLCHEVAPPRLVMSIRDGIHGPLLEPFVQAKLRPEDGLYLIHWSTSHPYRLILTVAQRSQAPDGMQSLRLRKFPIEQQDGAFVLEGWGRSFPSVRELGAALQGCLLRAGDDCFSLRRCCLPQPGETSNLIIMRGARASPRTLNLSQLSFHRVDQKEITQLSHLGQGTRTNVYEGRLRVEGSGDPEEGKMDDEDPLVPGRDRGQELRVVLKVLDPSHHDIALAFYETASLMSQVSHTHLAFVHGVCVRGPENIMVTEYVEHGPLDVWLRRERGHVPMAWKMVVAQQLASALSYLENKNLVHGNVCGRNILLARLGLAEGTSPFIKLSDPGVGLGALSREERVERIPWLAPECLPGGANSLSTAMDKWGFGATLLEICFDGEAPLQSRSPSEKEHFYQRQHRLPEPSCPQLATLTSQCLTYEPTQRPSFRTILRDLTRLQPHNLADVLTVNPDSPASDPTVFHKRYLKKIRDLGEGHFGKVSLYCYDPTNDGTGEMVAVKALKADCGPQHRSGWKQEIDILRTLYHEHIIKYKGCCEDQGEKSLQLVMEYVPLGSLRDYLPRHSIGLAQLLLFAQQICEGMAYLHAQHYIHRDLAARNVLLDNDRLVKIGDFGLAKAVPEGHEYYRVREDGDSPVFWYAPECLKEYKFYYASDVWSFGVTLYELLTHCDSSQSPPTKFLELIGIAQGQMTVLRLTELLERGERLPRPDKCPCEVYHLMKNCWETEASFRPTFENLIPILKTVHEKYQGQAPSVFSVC
JAK1 kinase activity on STAT3 in TF1 cells, sequence (P23458 whole entry): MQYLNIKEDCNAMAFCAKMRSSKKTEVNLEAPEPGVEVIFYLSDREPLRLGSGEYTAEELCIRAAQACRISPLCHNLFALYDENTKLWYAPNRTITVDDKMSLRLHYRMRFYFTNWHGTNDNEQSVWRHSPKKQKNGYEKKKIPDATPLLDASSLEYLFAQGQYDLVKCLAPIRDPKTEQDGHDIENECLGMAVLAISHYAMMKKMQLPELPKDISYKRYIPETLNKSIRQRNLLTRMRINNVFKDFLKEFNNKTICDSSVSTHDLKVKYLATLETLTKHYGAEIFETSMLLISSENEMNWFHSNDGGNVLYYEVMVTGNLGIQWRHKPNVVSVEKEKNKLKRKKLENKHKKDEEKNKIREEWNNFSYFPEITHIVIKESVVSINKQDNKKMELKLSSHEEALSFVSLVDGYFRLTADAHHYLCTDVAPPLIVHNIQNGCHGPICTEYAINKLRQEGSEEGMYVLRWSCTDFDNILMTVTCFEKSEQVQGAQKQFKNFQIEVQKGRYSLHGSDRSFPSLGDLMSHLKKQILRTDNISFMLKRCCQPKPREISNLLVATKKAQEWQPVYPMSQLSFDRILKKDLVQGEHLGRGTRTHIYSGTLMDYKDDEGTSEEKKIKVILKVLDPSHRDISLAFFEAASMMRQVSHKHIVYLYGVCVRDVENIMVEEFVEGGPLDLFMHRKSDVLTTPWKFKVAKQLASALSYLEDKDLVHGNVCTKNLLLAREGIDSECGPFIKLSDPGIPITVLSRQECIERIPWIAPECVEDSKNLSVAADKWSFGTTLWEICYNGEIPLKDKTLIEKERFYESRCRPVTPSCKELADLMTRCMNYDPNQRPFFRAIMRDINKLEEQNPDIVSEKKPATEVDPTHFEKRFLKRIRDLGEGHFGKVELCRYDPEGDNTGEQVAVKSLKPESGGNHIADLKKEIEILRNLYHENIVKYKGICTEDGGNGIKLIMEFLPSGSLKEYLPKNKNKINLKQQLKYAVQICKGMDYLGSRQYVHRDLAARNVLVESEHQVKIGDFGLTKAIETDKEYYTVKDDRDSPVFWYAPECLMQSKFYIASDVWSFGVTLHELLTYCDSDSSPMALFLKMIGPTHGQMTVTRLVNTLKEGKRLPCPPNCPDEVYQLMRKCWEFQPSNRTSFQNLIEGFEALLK
T4 sequence (O60674 849-1124 limits assumed): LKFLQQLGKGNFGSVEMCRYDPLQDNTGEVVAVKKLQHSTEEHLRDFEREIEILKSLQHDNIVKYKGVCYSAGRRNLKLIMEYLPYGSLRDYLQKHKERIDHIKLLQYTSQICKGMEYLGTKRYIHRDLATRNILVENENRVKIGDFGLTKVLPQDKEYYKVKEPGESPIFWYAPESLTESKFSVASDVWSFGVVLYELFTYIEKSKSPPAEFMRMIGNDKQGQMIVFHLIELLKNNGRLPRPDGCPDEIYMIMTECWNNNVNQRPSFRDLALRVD
T2 sequence (P23458 875-1153 limits assumed): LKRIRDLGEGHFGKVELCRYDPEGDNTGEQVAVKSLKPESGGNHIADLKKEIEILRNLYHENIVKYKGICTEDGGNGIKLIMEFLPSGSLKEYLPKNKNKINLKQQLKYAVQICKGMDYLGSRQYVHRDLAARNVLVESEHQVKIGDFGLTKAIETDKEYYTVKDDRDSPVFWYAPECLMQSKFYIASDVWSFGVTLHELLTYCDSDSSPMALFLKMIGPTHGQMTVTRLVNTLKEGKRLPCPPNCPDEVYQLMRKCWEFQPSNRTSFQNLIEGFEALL
T3 sequence (P52333 822-1111 limits assumed): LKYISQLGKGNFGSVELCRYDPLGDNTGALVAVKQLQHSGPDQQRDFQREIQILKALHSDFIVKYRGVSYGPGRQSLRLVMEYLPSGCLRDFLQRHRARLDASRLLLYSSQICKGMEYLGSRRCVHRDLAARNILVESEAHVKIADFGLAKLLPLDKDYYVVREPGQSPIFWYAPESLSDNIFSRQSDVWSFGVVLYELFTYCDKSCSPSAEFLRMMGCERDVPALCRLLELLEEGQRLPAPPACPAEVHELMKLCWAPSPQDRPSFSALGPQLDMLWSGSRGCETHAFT

A word on the IC50: it is the concentration that inhibits the measured activity by half. `Cn1cc(-c2cc3c(N4CC[C@@](C#N)(C5CC5)C4=O)ccnn3c2)c(F)n1` [Example 12, (S)-3-cyclopropyl-1-(6-(3-fluoro-1-methyl-1H-pyrazol-4-yl)pyrrolo[1,2-b]pyridazin-4-yl)-2-oxopyrrolidine-3-carbonitrile]: the IC50 in experiment [1] was greater than 100 nM; in experiment [2] it was 5 to 20 nM; in experiment [3], 100 to 1000 nM; in experiment [4], 100 to 1000 nM; in experiment [5], 1 to 5 µM; in experiment [6], 100 to 1000 nM. Besides, the IC50 in experiment [7] was greater than 10 µM.

Consider `C[C@H]1CN(c2ccnn3cc(-c4cnn(C)c4)cc23)C(=O)[C@]1(C#N)C1CC1` [Example 22, (3R,4R)-3-cyclopropyl-4-methyl-1-(6-(1-methyl-1H-pyrazol-4-yl)pyrrolo[1,2-b]pyridazin-4-yl)-2-oxopyrrolidine-3-carbonitrile], for which the IC50 in experiment [1] is greater than 100 nM; in experiment [2], 50 to 100 nM; in experiment [3], 1000 to 5000 nM; in experiment [4], 1000 to 5000 nM; in experiment [5], greater than 10 µM; in experiment [6], 1000 to 5000 nM. Besides, in experiment [7], the IC50 was greater than 10 µM.

As for `CC[C@@H]1CN(c2ccnn3cc(-c4cnn(C)c4)cc23)C(=O)[C@]1(C#N)C1CC1` [Example 23, (3R,4S)-3-cyclopropyl-4-ethyl-1-(6-(1-methyl-1H-pyrazol-4-yl)pyrrolo[1,2-b]pyridazin-4-yl)-2-oxopyrrolidine-3-carbonitrile], the IC50 in experiment [1] lay within 50 to 100 nM; in experiment [2] it was 5 to 20 nM; in experiment [3] it was 100 to 1000 nM; in experiment [4] it was 100 to 1000 nM; in experiment [5], 1 to 5 µM; in experiment [6] it was 100 to 1000 nM. For the same compound, the IC50 in experiment [7] fell in the range of 5 to 10 µM.

With `C[C@@H]1CN(c2ccnn3c(F)c(-c4cnn(C)c4)cc23)C(=O)[C@]1(C#N)C1CC1` [Example 28, (3R,4S)-3-cyclopropyl-1-(7-fluoro-6-(1-methyl-1H-pyrazol-4-yl)pyrrolo[1,2-b]pyridazin-4-yl)-4-methyl-2-oxopyrrolidine-3-carbonitrile], the IC50 in experiment [1] is greater than 100 nM; in experiment [2], 50 to 100 nM; in experiment [3], 1000 to 5000 nM; in experiment [4] it was greater than 10000 nM; in experiment [5] it was greater than 10 µM; in experiment [6], 5000 to 10000 nM. Besides, in experiment [7], the IC50 was greater than 10 µM.

Turning to `C[C@@H]1CN(c2ccnn3cc(-c4cnn(C)c4)cc23)C(=O)[C@]1(C#N)C1CC1` [Example 34, (3R,4S)-3-cyclopropyl-4-methyl-1-(6-(1-methyl-1H-pyrazol-4-yl)pyrrolo[1,2-b]pyridazin-4-yl)-2-oxopyrrolidine-3-carbonitrile], the IC50 is 20 to 50 nM in experiment [1]; less than 5 nM in experiment [2]; 100 to 1000 nM in experiment [3]; 100 to 1000 nM in experiment [4]; 1 to 5 µM in experiment [5]; 100 to 1000 nM in experiment [6]. In experiment [7], this compound gave an IC50 of 5 to 10 µM.

Regarding `C[C@@H]1CN(c2ccnn3cc(-c4cnn(C(F)F)c4)cc23)C(=O)[C@]1(C#N)C1CC1` [Example 35, (3R,4S)-3-cyclopropyl-1-(6-(1-(difluoromethyl)-1H-pyrazol-4-yl)pyrrolo[1,2-b]pyridazin-4-yl)-4-methyl-2-oxopyrrolidine-3-carbonitrile], the IC50 in experiment [1] is 20 to 50 nM; in experiment [2], less than 5 nM; in experiment [3], 100 to 1000 nM; in experiment [4], 100 to 1000 nM; in experiment [5], 1 to 5 µM; in experiment [6], 100 to 1000 nM. In experiment [7], this compound came in with an IC50 of 5 to 10 µM.

Regarding `COc1ccc(-c2cc3c(N4C[C@@H](C)[C@@](C#N)(C5CC5)C4=O)ccnn3c2)cn1` [Example 48, (3R,4S)-3-cyclopropyl-1-(6-(6-methoxypyridin-3-yl)pyrrolo[1,2-b]pyridazin-4-yl)-4-methyl-2-oxopyrrolidine-3-carbonitrile], the IC50 in experiment [1] was greater than 100 nM; in experiment [2], 5 to 20 nM; in experiment [3], 100 to 1000 nM; in experiment [4] it was 100 to 1000 nM; in experiment [5], 1 to 5 µM; in experiment [6], 100 to 1000 nM. This compound showed an IC50 in experiment [7] of 5 to 10 µM.

`C[C@@H]1CN(c2ccnn3cc(-c4ccc5cncn5c4)cc23)C(=O)[C@]1(C#N)C1CC1` [Example 51, (3R,4S)-3-cyclopropyl-1-(6-(imidazo[1,5-a]pyridin-6-yl)pyrrolo[1,2-b]pyridazin-4-yl)-4-methyl-2-oxopyrrolidine-3-carbonitrile]: the IC50 is 50 to 100 nM in experiment [1]; 5 to 20 nM in experiment [2]; less than 100 nM in experiment [3]; 100 to 1000 nM in experiment [4]; 1 to 5 µM in experiment [5]; 100 to 1000 nM in experiment [6]. In experiment [7], this compound returned an IC50 greater than 10 µM.

In the case of `C[C@@H]1CN(c2ccnn3cc(-c4ccc(S(C)(=O)=O)nc4)cc23)C(=O)[C@]1(C#N)C1CC1` [Example 52, (3R,4S)-3-cyclopropyl-4-methyl-1-(6-(6-(methylsulfonyl)pyridin-3-yl)pyrrolo[1,2-b]pyridazin-4-yl)-2-oxopyrrolidine-3-carbonitrile], the IC50 is greater than 100 nM in experiment [1]; 5 to 20 nM in experiment [2]; 100 to 1000 nM in experiment [3]; 100 to 1000 nM in experiment [4]; 5 to 10 µM in experiment [5]; 100 to 1000 nM in experiment [6]. Further, in experiment [7], the IC50 was greater than 10 µM.

For the compound `C[C@@H]1CN(c2ccnn3cc(-c4cncc(O)c4)cc23)C(=O)[C@]1(C#N)C1CC1` [Example 53, (3R,4S)-3-cyclopropyl-1-(6-(5-hydroxypyridin-3-yl)pyrrolo[1,2-b]pyridazin-4-yl)-4-methyl-2-oxopyrrolidine-3-carbonitrile], the IC50 in experiment [1] is greater than 100 nM; in experiment [2], 5 to 20 nM; in experiment [3], 100 to 1000 nM; in experiment [4], 100 to 1000 nM; in experiment [5], 5 to 10 µM; in experiment [6] it was 100 to 1000 nM. In experiment [7], this compound showed an IC50 greater than 10 µM.

For `C[C@@H]1CN(c2ccnn3cc(-c4cccc5c4cnn5C)cc23)C(=O)[C@]1(C#N)C1CC1` [Example 54, (3R,4S)-3-cyclopropyl-4-methyl-1-(6-(1-methyl-1H-indazol-4-yl)pyrrolo[1,2-b]pyridazin-4-yl)-2-oxopyrrolidine-3-carbonitrile], the IC50 in experiment [1] is greater than 100 nM; in experiment [2], 5 to 20 nM; in experiment [3] it was 100 to 1000 nM; in experiment [4], 100 to 1000 nM; in experiment [5], 5 to 10 µM; in experiment [6], 1000 to 5000 nM. Besides, in experiment [7], the IC50 was greater than 10 µM.

Turning to `C[C@@H]1CN(c2ccnn3cc(-c4ccc5c(cnn5C)c4)cc23)C(=O)[C@]1(C#N)C1CC1` [Example 55, (3R,4S)-3-cyclopropyl-4-methyl-1-(6-(1-methyl-1H-indazol-5-yl)pyrrolo[1,2-b]pyridazin-4-yl)-2-oxopyrrolidine-3-carbonitrile], the IC50 was 5 to 20 nM in experiment [1]; less than 5 nM in experiment [2]; less than 100 nM in experiment [3]; 100 to 1000 nM in experiment [4]; 0.1 to 1 µM in experiment [5]; 100 to 1000 nM in experiment [6]. For the same compound, the IC50 in experiment [7] lay in the range of 1 to 5 µM.

For the compound `C[C@@H]1CN(c2ccnn3cc(-c4cccnc4F)cc23)C(=O)[C@]1(C#N)C1CC1` [Example 56, (3R,4S)-3-cyclopropyl-1-(6-(2-fluoropyridin-3-yl)pyrrolo[1,2-b]pyridazin-4-yl)-4-methyl-2-oxopyrrolidine-3-carbonitrile], the IC50 in experiment [1] was greater than 100 nM; in experiment [2], 5 to 20 nM; in experiment [3], 100 to 1000 nM; in experiment [4], 100 to 1000 nM; in experiment [5], 5 to 10 µM; in experiment [6], 100 to 1000 nM. Moreover, the IC50 in experiment [7] was greater than 10 µM.
